Measurements: patent US20060058392A1, “Use of a rhein in a therapeutic treatment requiring a rise in the rate of heme oxygenase” (priority 2002, published 2006)

What was measured:
[1] = test system: TO mice implanted with rat tissue; assay: Induced granuloma and tissue degradation of rat tissue implanted subcutaneously in mice; assay type: in vivo, mouse; conditions: for integrity of the implanted/grafted tissue / tissular reaction (granuloma, inflammatory cells, exudate) caused by the transplant of rat tissue to the mouse: overall statement
Protocol: The effect of diacerein, rhein and their salts or esters on the intensity of the tissular reaction and the destruction and rejection phenomena was assessed following a tissue implantation, using the model of induced granuloma and tissue degradation of rat tissue in mice (Bottomley K M and al., Osteoarthritis and Cartilage (1998) 6: 19-23.).
The method comprises the following steps: • The isolated tissue (Wistar rat, male) are placed in sterile cotton and implanted subcutaneously in TO mice; • the subcutaneous implants are kept for a period of 2 weeks; • daily treatment of the animals with diacerein, rhein, their salts or esters, as well as with the controls and comparatives, at the optimum doses indicated; • collection of the implanted tissue and of the reactive granuloma; • measurement of the degree of tissular inflammatory response (assessment of the dimensions of the granuloma, of the number of inflammatory cells in the exudate and of the volume of the exudate), and of the rejection (assessment of the degradation of the implanted tissue).

[2] = test system: patients presenting with osteoarthritis; conditions: cited from earlier work; for antalgic and anti-inflammatory symptomatic activity: acute phase of osteoarthritis, Nguyen et al. 1994
[3] = test system: heme oxygenase-1 (HO-1); assay: Western blot of HO-1 expression in mice macrophages; assay type: cell-based; conditions: 10^−5 M, analysed at 15, 30, 60 min (diacerein, FIG. 7b) or 0-120 min and 18 h (rhein, FIG. 7c)
Protocol: FIGS. 7b and 7c are also <<Western blots >> of cells (model: mice macrophages) cultivated with and without diacerein (FIG. 7b: columns “Dε” and “Cε” respectively) or rhein (FIG. 7c) at a concentration of 10^−5 M, and later analysed at 15, 30 and 60 minutes (FIG. 7b) and at 0, 15, 30, 60, 120 minutes as well as 18 hours (FIG. 7c). The identity of the protein of interest, HO-1, was confirmed as regards its molecular mass (first column on the left in the Figures).

[4] = test system: human chondrocytes; assay: Human chondrocyte culture treated with erythrocyte lysate (cellular viability, apoptosis); assay type: cell-based; conditions: lysate of 3×10^6 erythrocytes, 100 μM
Protocol: The whole cellular culture was measured by its cellular viability (live cells compared to the control), the presence of apoptosis (nuclear fragmentation; in number and percentage compared to the control), and the incorporation of radioactive sulphate (^35SO4; in coups per minutes, CPM).
As was already observed with the femoral head cartilage, the erythrocytes, erythrocyte lysate and haemoglobin also cause cellular destruction in this model. However, stress-induced HSPs prevent this cellular destruction and preserve the cells, as shown on FIG. 6 which counts the live cells (model: human chondrocytes under thermal stress (1 h at 43° C.) and treated with erythrocyte lysate (3×10^6); sem=standard error).

[5] = cited from earlier work
[6] = test system: heme oxygenase-1 (HO-1); assay: Western blot of HO-1 expression in rat femoral head cartilage culture; assay type: cell-based; conditions: diacerein 10 μM and 100 μM, compared to control and reference solution, FIG. 7a

| SMILES | integrity of the implanted/grafted tissue [1] | tissular reaction (granuloma, inflammatory cells, exudate) caused by the transplant of rat tissue to the mouse [1] | antalgic and anti-inflammatory symptomatic activity [2] | expression of HO-1 [3] | apoptosis caused by the erythrocyte lysate ([4]; FIG. 9) | solubility in alcohols [5] | solubility in water [5] | tissular reaction (formation of the reactive granuloma) ([1]; 5, 15 and 50 mg/kg per oral route, daily, 2 weeks, p<0.01 vs control, FIG. 10) | integrity of the grafted tissue: content in collagen ([1]; 5, 15 and 50 mg/kg per oral route, p<0.05 / p<0.01 vs control, FIG. 12 left) | integrity of the grafted tissue: content in glycosamino-glycan (GAG) ([1]; 5, 15 and 50 mg/kg per oral route, p<0.05 / p<0.01 vs control, FIG. 12 right) | tissular reaction: number of inflammatory cells ([1]; 5, 15 and 50 mg/kg per oral route, p<0.05 vs control, FIG. 11 left) | tissular reaction: volume of the exudate ([1]; 5, 15 and 50 mg/kg per oral route, p<0.05 vs control, FIG. 11 right) | progression of osteoarthritis ([2]; patients with osteoarthritis) | safety of use ([2]; patients with osteoarthritis) | expression of HO-1 [6] | cellular destruction caused by the erythrocyte lysate (live cells) ([4]; FIG. 8) |
| --- | --- | --- | --- | --- | --- | --- | --- | --- | --- | --- | --- | --- | --- | --- | --- | --- |
| O=C(O)c1cc(O)c2c(c1)C(=O)c1cccc(O)c1C2=O [rhein] | preserve the integrity of the implanted tissue | reduce the tissular reaction | moderate | time-dependant increase | prevents the apoptosis | very slightly soluble | very slightly soluble |  |  |  |  |  |  |  |  |  |
| CC(=O)Oc1cccc2c1C(=O)c1c(OC(C)=O)cc(C(=O)O)cc1C2=O [diacerein] | preserve the integrity of the implanted tissue | reduce the tissular reaction | moderate | time-dependant increase |  | very slightly soluble | very slightly soluble | dose-dependent reduction | preserves the integrity of the grafted tissue | preserves the integrity of the grafted tissue | reduced in a dose-dependent manner | reduced in a dose-dependent manner | slows down the progression of osteoarthritis | good safety of use | dose-dependent increase | prevents the cellular destruction |
